# Test results as given in publication PMC11555678, “Improved Broad Spectrum Antifungal Drug Synergies with Cryptomycin, a Cdc50-Inspired Antifungal Peptide” (ACS Infectious Diseases, 2024).
# Where two headings read alike, the source gives them in different places.
# Assays:
# Cg FKS2 S663P = test: Drug synergy (MIC in peptide-supplemented media); format: cell-based, Candida glabrata; conditions: RPMI1640, 37 °C, 48 h
# Method: (§1) All microdilution assays with fungi were carried out in accordance with CLSI protocols from M27 for yeasts and M38 for filamentous fungi, respectively, unless otherwise specified.[64],[65] Briefly, 96-well plates were charged with RPMI1640 media, with operating volume in the first column, 200 μL, and half operating volume, 100 μL, in the remaining wells. Drug stock solution in DMSO was aliquoted into the first well in each row. Half of the volume in the dosed well was serially diluted 2-fold until column 11. Column 11 was used as the negative growth control, and column 12 was used as the positive growth control. ON yeast cultures in YPD were washed twice in DD-H2O, resuspended in PBS, and adjusted to 5000 cfu/mL in RPMI. The 96-well plate was inoculated with 100 μL aliquots of cell suspension per well. Plates were incubated at 37 °C for 2 days.
# (§2) To assess drug synergy, the initial media charged to the plate contained the peptide at twice the final operating concentration; the remaining processing steps were identical to the MIC experiment. Upon addition of 100 μL of inoculant, the final operating concentration was achieved. Control MIC plates were prepared alongside drug synergy plates to account for the day-to-day variability in any individual MIC. FIC index is computed using eq 1. All MIC assays and drug synergy assays were completed with two technical replicates per 96-well plate and a minimum of two biological replicates per drug combination. If a difference in MIC between the two technical replicates on the plate were observed, only the higher concentration was reported as the MIC to reduce the possibility of type 1 error (false positive) [drawing 1] 1
# Cg FKS1 S629P = test: Drug synergy (MIC in peptide-supplemented media); format: cell-based, Candida glabrata; conditions: RPMI1640, 37 °C, 48 h
# Method: as §1, §2
# A. fumigatus AF293 [1] = test: Drug synergy (MIC in peptide-supplemented media); format: cell-based, Aspergillus fumigatus; conditions: RPMI1640, 37 °C, 48 h, CAS: paradoxical growth; for MIC of antifungal in combination with KKOO: MIC = <20% growth; for MIC of antifungal in combination with KKOO-NH2: MIC = well with <20% growth
# Method: as §1, §2
# C. auris B11245 = format: cell-based, Candida auris; conditions: RPMI1640, 37 °C, 48 h, CAS: paradoxical growth; for MIC of antifungal in combination with KKOO: MIC = <20% growth; for MIC of antifungal in combination with KKOO-NH2: MIC = well with <20% growth
# Method: as §1, §2
# C. albicans SC5413 = format: cell-based, Candida albicans; conditions: RPMI1640, 37 °C, 48 h; for MIC of antifungal in combination with KKOO: azole MICs unclear (intermediate phenotype); for MIC of antifungal in combination with KKOO-NH2: azole MICs could not be determined (intermediate phenotype)
# Method: as §1, §2
# A. fumigatus AF293 [2] = test: microbe, parasite or virus in culture; format: cell-based, Aspergillus fumigatus; conditions: Aspergillus fumigatus, AF293, 48 h
# Method: as §1
# C. glabrata 2001 = format: cell-based, Candida glabrata; conditions: RPMI1640, 37 °C, 48 h
# Method: as §1, §2
# C. neoformans apt3Δ = test: microbe, parasite or virus in culture; format: cell-based, Cryptococcus neoformans; conditions: Cryptococcus neoformans, 48 h
# Outline: (§3)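 Two-fold dilution series prepared from DMSO stocks in RPMI1640 were inoculated with 5000 cfu/mL yeast per CLSI M27, then kept at 37 °C for 2 days.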
# C. neoformans apt1Δ = test: microbe, parasite or virus in culture; format: cell-based, Cryptococcus neoformans; conditions: Cryptococcus neoformans, 48 h
# Outline: as §3
# C. neoformans Crm1^OE = test: microbe, parasite or virus in culture; format: cell-based, Cryptococcus neoformans; conditions: Cryptococcus neoformans, 48 h
# Outline: as §3
# C. neoformans apt4Δ = test: microbe, parasite or virus in culture; format: cell-based, Cryptococcus neoformans; conditions: Cryptococcus neoformans, 48 h
# Outline: as §3
# C. neoformans cdc50Δ = test: microbe, parasite or virus in culture; format: cell-based, Cryptococcus neoformans; conditions: Cryptococcus neoformans, 48 h
# Outline: as §3
smiles,measurement,setting,value
"CCC(C)n1ncn(-c2ccc(N3CCN(c4ccc(OCC5COC(Cn6cncn6)(c6ccc(Cl)cc6Cl)O5)cc4)CC3)cc2)c1=O (stereo not drawn) [ITR, itraconazole]",MIC of antifungal in combination with KKOO,Cg FKS2 S663P; +0 μg/mL KKOO (control),0.031 µg/mL
same,MIC of antifungal in combination with KKOO-NH2,Cg FKS2 S663P; +0 μg/mL KKOO-NH2 (control),0.031 µg/mL
same,MIC of antifungal in combination with KKOO-NH2,Cg FKS2 S663P; +1 μg/mL KKOO-NH2,0.016 µg/mL
same,MIC of antifungal in combination with KKOO,Cg FKS2 S663P; +1 μg/mL KKOO,0.016 µg/mL
same,MIC of antifungal in combination with KKOO-NH2,Cg FKS2 S663P; +2 μg/mL KKOO-NH2,0.004 µg/mL
same,MIC of antifungal in combination with KKOO,Cg FKS2 S663P; +2 μg/mL KKOO,0.016 µg/mL
same,MIC of antifungal in combination with KKOO-NH2,Cg FKS2 S663P; +4 μg/mL KKOO-NH2,0.002 µg/mL
same,MIC of antifungal in combination with KKOO,Cg FKS2 S663P; +4 μg/mL KKOO,0.556 µg/mL
same,MIC of antifungal in combination with KKOO,Cg FKS1 S629P; +0 μg/mL KKOO (control),0.125 µg/mL
same,MIC of antifungal in combination with KKOO-NH2,Cg FKS1 S629P; +0 μg/mL KKOO-NH2 (control),0.062 µg/mL
same,MIC of antifungal in combination with KKOO-NH2,Cg FKS1 S629P; +1 μg/mL KKOO-NH2,0.031 µg/mL
same,MIC of antifungal in combination with KKOO,Cg FKS1 S629P; +1 μg/mL KKOO,0.062 µg/mL
same,MIC of antifungal in combination with KKOO-NH2,Cg FKS1 S629P; +2 μg/mL KKOO-NH2,0.016 µg/mL
same,MIC of antifungal in combination with KKOO,Cg FKS1 S629P; +2 μg/mL KKOO,0.031 µg/mL
same,MIC of antifungal in combination with KKOO-NH2,Cg FKS1 S629P; +4 μg/mL KKOO-NH2,0.008 µg/mL
same,MIC of antifungal in combination with KKOO,Cg FKS1 S629P; +4 μg/mL KKOO,0.016 µg/mL
same,MIC of antifungal in combination with KKOO,A. fumigatus AF293 [1]; +0 μg/mL KKOO (control),0.125 µg/mL
same,MIC of antifungal in combination with KKOO-NH2,A. fumigatus AF293 [1]; +0 μg/mL KKOO-NH2 (control),0.125 µg/mL
same,MIC of antifungal in combination with KKOO-NH2,A. fumigatus AF293 [1]; +1 μg/mL KKOO-NH2,0.125 µg/mL
same,MIC of antifungal in combination with KKOO,A. fumigatus AF293 [1]; +1 μg/mL KKOO,0.125 µg/mL
same,MIC of antifungal in combination with KKOO-NH2,A. fumigatus AF293 [1]; +2 μg/mL KKOO-NH2,0.062 µg/mL
same,MIC of antifungal in combination with KKOO,A. fumigatus AF293 [1]; +2 μg/mL KKOO,0.062 µg/mL
same,MIC of antifungal in combination with KKOO-NH2,A. fumigatus AF293 [1]; +4 μg/mL KKOO-NH2,0.062 µg/mL
same,MIC of antifungal in combination with KKOO,A. fumigatus AF293 [1]; +4 μg/mL KKOO,0.062 µg/mL
same,MIC of antifungal in combination with KKOO-NH2,A. fumigatus AF293 [1]; +8 μg/mL KKOO-NH2,0.031 µg/mL
same,MIC of antifungal in combination with KKOO,C. auris B11245; +0 μg/mL KKOO (control),0.5 µg/mL
same,MIC of antifungal in combination with KKOO-NH2,C. auris B11245; +0 μg/mL KKOO-NH2 (control),0.5 µg/mL
same,MIC of antifungal in combination with KKOO-NH2,C. auris B11245; +1 μg/mL KKOO-NH2,0.125 µg/mL
same,MIC of antifungal in combination with KKOO,C. auris B11245; +1 μg/mL KKOO,0.25 µg/mL
same,MIC of antifungal in combination with KKOO-NH2,C. auris B11245; +2 μg/mL KKOO-NH2,0.062 µg/mL
same,MIC of antifungal in combination with KKOO,C. auris B11245; +2 μg/mL KKOO,0.062 µg/mL
same,MIC of antifungal in combination with KKOO-NH2,C. auris B11245; +4 μg/mL KKOO-NH2,0.016 µg/mL
same,MIC of antifungal in combination with KKOO,C. auris B11245; +4 μg/mL KKOO,0.031 µg/mL
same,MIC of antifungal in combination with KKOO,C. albicans SC5413; +0 μg/mL KKOO (control),> 1 µg/mL
same,MIC of antifungal in combination with KKOO-NH2,C. albicans SC5413; +0 μg/mL KKOO-NH2 (control),>1 µg/mL
same,MIC of antifungal in combination with KKOO-NH2,C. albicans SC5413; +1 μg/mL KKOO-NH2,>1 µg/mL
same,MIC of antifungal in combination with KKOO,C. albicans SC5413; +1 μg/mL KKOO,> 1 µg/mL
same,MIC of antifungal in combination with KKOO-NH2,C. albicans SC5413; +2 μg/mL KKOO-NH2,>1 µg/mL
same,MIC of antifungal in combination with KKOO,C. albicans SC5413; +2 μg/mL KKOO,> 1 µg/mL
same,MIC of antifungal in combination with KKOO-NH2,C. albicans SC5413; +4 μg/mL KKOO-NH2,>1 µg/mL
same,MIC of antifungal in combination with KKOO,C. albicans SC5413; +4 μg/mL KKOO,> 1 µg/mL
same,MIC of antifungal in combination with KKOO,C. albicans SC5413; +8 μg/mL KKOO,> 1 µg/mL
same,MIC,A. fumigatus AF293 [2],0.125 µg/mL
same,MIC of antifungal in combination with KKOO,C. glabrata 2001; +0 μg/mL KKOO (control),0.5 µg/mL
same,MIC of antifungal in combination with KKOO-NH2,C. glabrata 2001; +0 μg/mL KKOO-NH2 (control),0.5 µg/mL
same,MIC of antifungal in combination with KKOO-NH2,C. glabrata 2001; +1 μg/mL KKOO-NH2,0.25 µg/mL
same,MIC of antifungal in combination with KKOO,C. glabrata 2001; +1 μg/mL KKOO,0.25 µg/mL
same,MIC of antifungal in combination with KKOO-NH2,C. glabrata 2001; +2 μg/mL KKOO-NH2,0.125 µg/mL
same,MIC of antifungal in combination with KKOO,C. glabrata 2001; +2 μg/mL KKOO,0.125 µg/mL
same,MIC of antifungal in combination with KKOO-NH2,C. glabrata 2001; +4 μg/mL KKOO-NH2,0.031 µg/mL
same,MIC of antifungal in combination with KKOO,C. glabrata 2001; +4 μg/mL KKOO,0.062 µg/mL
same,MIC of antifungal in combination with KKOO,C. glabrata 2001; +8 μg/mL KKOO,0.062 µg/mL
same,MIC,C. neoformans apt3Δ,0.062 µg/mL
same,MIC,C. neoformans apt1Δ,0.5 µg/mL
same,MIC,C. neoformans Crm1^OE,0.016 µg/mL
same,MIC,C. neoformans apt4Δ,0.062 µg/mL
same,MIC,C. neoformans cdc50Δ,0.002 µg/mL
